Source: the NIST ThermoML archive (doi:10.1021/je800637t)
± gives the expanded uncertainty stated by the source.

Columns and labels:
[1] = mn = molality of the nth substance listed, in mol/kg; details: 100.8 kPa, Liquid, m2 = 0; for viscosity: Cone and plate viscometry; for electrical conductivity: Kyoto model CM-117 conductivity meter
[2] = refractive index (Na D-line) (dimensionless); mn = molality of the nth substance listed, in mol/kg; details: 100.8 kPa, Liquid, Standard Abbe refractometry, m2 = 0

O [water] + O=[N+]([O-])[O-].[K+]
Details	electrical conductivity, [1] [S/m]	refractive index, [2]	viscosity, [1] [mPa·s]
298.15 K	0.000125 ± 2e-06	1.33277 ± 0.0004	0.891 ± 0.009
313.15 K	0.000164 ± 2e-06	1.3306 ± 0.0004	0.653 ± 0.007

Details	mass density [kg/m3]
[1], 313.15 K, Vibrating tube method	992.15 ± 0.05
